This is an account of results in publication PMC4841536, “Characterization of the Anti-HCV Activities of the New Cyclophilin Inhibitor STG-175” (PLoS ONE, 2016).

SMILES strings stand for the structures. pEC50, pIC50: −log10 of the molar value. Several values for one entry are separate records, joined by “and”; a condition that tells them apart may be missing. Equal values may be shown once. Read-outs that look alike come from different tables or passages of the source.

The target of one assay is T1, Human recombinant CypA (Homo sapiens, UniProt P62937).
T1 construct: purchased Atgen
T1 sequence (P62937 whole entry): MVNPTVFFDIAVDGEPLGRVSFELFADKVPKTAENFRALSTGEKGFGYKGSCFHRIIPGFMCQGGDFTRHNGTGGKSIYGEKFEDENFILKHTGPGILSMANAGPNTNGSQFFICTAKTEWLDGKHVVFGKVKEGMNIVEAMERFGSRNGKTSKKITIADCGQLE
The experiment in a line: α-chymotrypsin-coupled PPIase assay, CypA isomerase activity. The assay is classed as biochemical. The settings on record: 5°C, 10 concentrations 0.05–1000 nM; read-out: IC50, neutralization of the isomerase activity of CypA. As for the experimental part:
Inhibition of CypA and CypD isomerase activities were quantified using a α-chymotrypsin-coupled assay adapted to a 96-well plate format. Human recombinant CypA or CypD (Atgen) was dissolved to 10 nM in PPIases buffer (50 mM Hepes, 100 mM NaCl, 1 mg/ml bovine serum albumin, 1 mg/ml α-chymotrypsin; pH 8). Succinyl-AAPF-pNA peptide substrate (Sigma) was dissolved to 3.2 mM in LiCl/trifluoroethanol. Each CypI was prepared at 10 concentrations in DMSO, then diluted into CypA/D PPIase buffer to 0.05–1000 nM. Incubations were performed at 5°C. Ninety five μL of reaction mix was added to 5 μL peptide in 96-wells and OD405 nm measured at 6-sec intervals for 6 min using a Biotek Synergy H4 plate reader. Data were fitted with Graphpad Prism 6.0 to acquire first-order rate constants, which were calculated by subtracting the rate constant from uncatalyzed reactions (no CypA/D). […]
(§1) The inhibition of the isomerase activities of CypA and CypD were measured with 10 increasing concentrations of STG-175 to quantify IC50 values.
Fig 1 Anti-PPIase and immunosuppressive activities of STG-175. […] Inhibition of CypA (B) and CypD (C) isomerase activities were assessed using the α-chymotrypsin-coupled assay. […] D. IL-2 promoter activation upon T-cell stimulation was determined using an engineered Jurkat T-cell line, which expresses betagalactosidase. […] The Y-axis values are expressed as percentage of activity. […]

Another assay concerns the target T2, Human recombinant CypD (Homo sapiens, UniProt P30405).
T2 construct: purchased Atgen
Description: α-chymotrypsin-coupled PPIase assay, CypD isomerase activity. The assay is classed as biochemical. The settings on record: 5°C, 10 concentrations 0.05–1000 nM. As for the experimental part: Inhibition of CypA and CypD isomerase activities were quantified using a α-chymotrypsin-coupled assay adapted to a 96-well plate format. Human recombinant CypA or CypD (Atgen) was dissolved to 10 nM in PPIases buffer (50 mM Hepes, 100 mM NaCl, 1 mg/ml bovine serum albumin, 1 mg/ml α-chymotrypsin; pH 8). Succinyl-AAPF-pNA peptide substrate (Sigma) was dissolved to 3.2 mM in LiCl/trifluoroethanol. Each CypI was prepared at 10 concentrations in DMSO, then diluted into CypA/D PPIase buffer to 0.05–1000 nM. Incubations were performed at 5°C. Ninety five μL of reaction mix was added to 5 μL peptide in 96-wells and OD405 nm measured at 6-sec intervals for 6 min using a Biotek Synergy H4 plate reader. Data were fitted with Graphpad Prism 6.0 to acquire first-order rate constants, which were calculated by subtracting the rate constant from uncatalyzed reactions (no CypA/D). The catalytic rate constants were plotted as a function of inhibitor concentration to obtain IC50s.
as §1
Fig 1 Anti-PPIase and immunosuppressive activities of STG-175. A. Structures of cyclophilin inhibitors. Inhibition of CypA (B) and CypD (C) isomerase activities were assessed using the α-chymotrypsin-coupled assay. Each test compound was prepared at 10 concentrations (0.05–1000 nM). All solutions were equilibrated, and reactions conducted at 5°C. Reactions were initiated by mixing 95 μL reaction mix with 5 μL of the peptide to be cleaved and measuring OD405 nm at 6-sec intervals for 6 min. […] Enzyme catalyzed rate constants were calculated by subtracting the rate constant from uncatalyzed reactions (no CypA/D), and catalytic rate constants plotted as a function of inhibitor concentration to obtain IC50s. […] D. IL-2 promoter activation upon T-cell stimulation was determined using an engineered Jurkat T-cell line, which expresses betagalactosidase. […] The Y-axis values are expressed as percentage of activity. Data expressed as EC50s are representative of two independent experiments.

The subject of assay [1] is IL-2 promoter activation in Jurkat T-cell line. The experiment in a line: In vitro assay for immunosuppression: IL-2 promoter activation in engineered Jurkat T-cell line (betagalactosidase). The assay is classed as cell-based. The settings on record: Homo sapiens; Jurkat cells activated with PMA 10 ng/mL, 24 h; read-out: IC50, inhibition of IL-2 production (immunosuppressive activity). Here is the method: IL-2 promoter activation upon T-cell stimulation was determined using an engineered Jurkat T-cell line, which expresses betagalactosidase when exposed to chemical non-specific factors like […] (PMA) and phytohematogglutinin (PHA) as described previously. DMSO or STG-175 were added together with PMA (10 ng/mL) to 1 million of Jurkat cells (triplicates). Betagalactosidase activity in cell lysates was quantified by fluorescence (460 nm) after 24 h.
Fig 1 Anti-PPIase and immunosuppressive activities of STG-175. A. Structures of cyclophilin inhibitors. Inhibition of CypA (B) and CypD (C) isomerase activities were assessed using the α-chymotrypsin-coupled assay. Each test compound was prepared at 10 concentrations (0.05–1000 nM). All solutions were equilibrated, and reactions conducted at 5°C. Reactions were initiated by mixing 95 μL reaction mix with 5 μL of the peptide to be cleaved and measuring OD405 nm at 6-sec intervals for 6 min. Data were fitted with Graphpad Prism 6.0 to obtain first-order rate constants. Enzyme catalyzed rate constants were calculated by subtracting the rate constant from uncatalyzed reactions (no CypA/D), and catalytic rate constants plotted as a function of inhibitor concentration to obtain IC50s. […] D. IL-2 promoter activation upon T-cell stimulation was determined using an engineered Jurkat T-cell line, which expresses betagalactosidase. Jurkat cells (1 million) were activated with PMA (10 ng/mL). […] The Y-axis values are expressed as percentage of activity. Data expressed as EC50s are representative of two independent experiments.
The formation of this trimolecular complex inhibits T cell proliferation by blocking the signaling pathway leading to IL-2 production upon T-cell stimulation. The immunosuppressive activity of STG-175 was evaluated by inhibition of the IL-2 production in Jurkat cells.

In assay [2] the test system is subgenomic Con1 (GT1b) replicon in Huh-7 cells. The assay is classed as cell-based, hepatitis C virus. The settings on record: for passage at which resistant variants emerged (CypI comparison): Fig 3C. As for the experimental part:
Huh-7 cell expressing subgenomic Con1 (GT1b) replicon were seeded in a 10 cm dish at a density of 3 × 10^5 cells per culture flask in complete DMEM (with G418) with STG-175 or selected drugs. Cells were grown until they reached 90% confluence, trypsinized and re-seeded at the same cell concentration in a new 10-cm dish with the same drug concentration. Cells were passaged 22 times in the presence of drugs. At each passage, sample of cells were collected, RNA extracted according to the manufacturer's instructions and analyzed by RT-PCR for HCV RNA levels.
(§2) Fig 3 Replicon clearance, replication rebound and resistance analyses. […] Then drugs were removed to allow viral replication rebound to occur. At each passage, samples of cells were collected, RNA extracted and analyzed by RT-PCR for HCV RNA levels. B. Emergence of resistance: Con1 replicon Huh-7 cells were passaged 22 times in the absence or presence of STG-175 or selected DAAs. At each passage, sample of cells were collected, RNA extracted and analyzed by RT-PCR for HCV RNA levels. C. […] Data are expressed as number of HCV RNA copies per cell. […] Data are expressed as mean of relative light units and calculated EC50s are presented. […] E. Degree of resistance of D320E and Y321N Con1 variants: Left panel. Wild-type (WT), D320E and D320/Y321N NS5A Con1 RNA were electroporated into Huh7.5.1 cells and replication monitored over 8 days by quantifying the levels of intracellular HCV RNA. Right panel. Same as just above except that increasing concentrations of STG-175 were added at the time of the electroporation. […] STG-175 is taken as the substance from the printed x-axis title 'STG-175 in Log nM'.
We then examined the development of resistance to STG-175. GT1b Con1 sub-genomic replicon cells were grown in the presence of STG-175 (0.25 and 1 μM), telaprevir (2.5 and 10 μM), boceprevir (2.5 and 10 μM), daclatasvir 100 pM and 1 nM) or a combination of STG-175 (0.25 μM) with either telaprevir (2.5 μM), boceprevir (2.5 μM) or daclatasvir (100 pM) for 22 successive passages. At each passage, fresh drug was added and a sample of cells was taken to quantify HCV RNA levels by RT-qPCR.

Assay [3] relates to wild-type Con1 GT1b replicon. The experiment in a line: Electroporated Con1 RNA replication in Huh7.5.1 cells (RT-qPCR), wild-type. The settings on record: Hepatitis C virus, Huh-7.5.1, 192 h, read-out: EC50 GT1b WT. The assay is classed as cell-based.
Description: (§3) The GT1b subgenomic firefly luciferase reporter replicon pFK-I389/NS3–3 was provided by R. Bartenschlager. The GT1B subgenomic NS3, NS5A and NS5B mutants were created via homologous recombination using the In-Fusion HD Cloning kit (Clontech) as we described previously. […] The in vitro transcription of wild-type and mutant Con1 RNA was accomplished using the T7 MEGAscript kit (Ambion) by following the manufacturer’s instructions. In vitro-transcribed RNAs were introduced into Huh7.5.1 cells by electroporation. Trypsinized cells were washed twice and resuspended in phosphate-buffered saline (PBS) (calcium-free and magnesium-free) at 1x 10^7 cells per ml. Ten micrograms of RNA for each mutant was mixed with 0.4 mL of cells in a 4-mm cuvette, and a Bio-Rad Gene Pulser system was used to deliver a single pulse at 0.27 kV, 100 ohms, and 960 μF. Cells were then plated in 12-well dishes. RNA transfection efficiency and HCV subgenomic replication were assessed by reverse transcription-quantitative PCR (RT-qPCR) and presented as genome equivalents (GE) per microgram of total RNA as described previously. We measured by RT-qPCR the replication of wild-type, STG-175-, NS5Ai-, NS3i- and NS5Bi-resistant mutants in the presence of increasing concentrations of SGT-175, daclatasvir, telaprevir, boceprevir and sofosbuvir over a period of 8 days.
as §2
To determine whether the D320E and Y321N substitutions truly render HCV resistant to STG-175, they were introduced into wild-type Con1 replicon as we described previously. Introduction of the substitutions was verified by sequencing. In vitro-transcribed wild-type, D320E and D320E/Y321N HCV RNAs were then electroporated into Huh7.5.1 cells and viral replication assessed by RT-qPCR and presented as GE per microgram of total RNA as we described previously. […] We then analyzed the replication of wild-type, D320E and D320E/Y321N in the presence of increasing concentrations of SGT-175 over a period of 8 days.
Fig 5 Cross-resistance analyses.

For assay [4], the system named is D320E NS5A Con1 GT1b replicon. The experiment in a line: microbe, parasite or virus in culture. The assay is classed as cell-based, hepatitis C virus. The settings on record: Hepatitis C virus, GT1B, Huh-7.5.1, 192 h, read-out: EC50 D320E NS5A.
Description: as §3
(§4) D320E and D320E/Y321N NS5A substitutions were introduced into wild-type Con1 GT1 replicon as we described previously. Con1-NS5A-D320E, and Con1-NS5A-D320E/Y321N were generated using the following forward and reverse phosphorylated (p) primer sets, respectively: (p)[…] and (p)[…], and (p)[…] and (p)[…]. PCR products were circularized with Quick T4 DNA ligase (NEB) for 5 min and transformed into NEB 10-beta competent cells. The NS5A gene was sequenced to confirm the introduced substitutions.
as §2
(§5) To determine whether the D320E and Y321N substitutions truly render HCV resistant to STG-175, they were introduced into wild-type Con1 replicon as we described previously. Introduction of the substitutions was verified by sequencing.

The subject of assay [5] is D320E/Y321N NS5A Con1 GT1b replicon. Description: microbe, parasite or virus in culture. The settings on record: Hepatitis C virus, GT1B, Huh-7.5.1, 192 h, read-out: EC50 D320E/Y321N NS5A. The assay is classed as cell-based, hepatitis C virus.
Description: as §3, §4, §2, §5

In assay [6] the test system is HCV GT4a subgenomic replicon ED43/SG-Feo. More on the design: method as in PMID 24687498. The settings on record: cited from earlier work.

T2 sequence (P30405 30-207): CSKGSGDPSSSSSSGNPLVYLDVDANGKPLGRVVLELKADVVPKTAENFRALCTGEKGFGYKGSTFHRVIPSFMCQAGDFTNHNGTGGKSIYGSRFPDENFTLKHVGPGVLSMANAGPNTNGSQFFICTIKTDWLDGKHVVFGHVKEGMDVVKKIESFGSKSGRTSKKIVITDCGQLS

Consider `C/C=C/C[C@@H](C)[C@@H](O)[C@H]1C(=O)N[C@@H](CC)C(=O)N(C)[C@H](C)C(=O)N(CC)[C@@H](C(C)C)C(=O)N[C@@H](C(C)C)C(=O)N(C)[C@@H](CC(C)C)C(=O)N[C@@H](C)C(=O)N[C@H](C)C(=O)N(C)[C@@H](CC(C)C)C(=O)N(C)[C@@H](CC(C)C)C(=O)N(C)[C@@H](C(C)C)C(=O)N1C` [ALV, alisporivir], for which the pIC50 on Human recombinant CypA is 8.77; on Human recombinant CypD (read-out: IC50, neutralization of the isomerase activity of CypD) it was 8.47; in assay [1], 7.07. Also, the “passage at which resistant variants emerged (CypI comparison)” value in assay [2] (0.25 μM of drug selection) was determined as 15 passage; in assay [2] (1 μM of drug selection), 17 passage. Moreover, in assay [2] (1 μM drug pressure, first account (Fig 3B)), the “passage at which resistance began” value was found to be 16 passage.
Consider `C/C=C/C[C@@H](C)[C@@H](O)[C@H]1C(=O)N[C@@H](CC)C(=O)N(C)[C@H](SCCN(C)C)C(=O)N(C)[C@@H](CC(C)(C)O)C(=O)N[C@@H](C(C)C)C(=O)N(C)[C@@H](CC(C)C)C(=O)N[C@@H](C)C(=O)N[C@H](C)C(=O)N(C)[C@@H](CC(C)C)C(=O)N(C)[C@@H](CC(C)C)C(=O)N(C)[C@@H](C(C)C)C(=O)N1C` [SCY-635], for which the negative-log IC50 (pIC50) was 8.15 and 8.14 on Human recombinant CypD (IC50, neutralization of the isomerase activity of CypD); 7.41 in assay [1].
As for `CC(C)(C)NC(=O)N[C@H](C(=O)N1C[C@H]2[C@@H]([C@H]1C(=O)NC(CC1CCC1)C(=O)C(N)=O)C2(C)C)C(C)(C)C` (stereo partly drawn) [boceprevir], the “passage at which resistance began” value in assay [2] (2.5 μM) is 7 passage; in assay [2] (10 μM) it was 10 passage. Besides, the “passages until development of HCV resistance, DAA alone ("instead of" comparison)” value in assay [2] (DAA alone, compared with combination) is reported as 7 passages. Besides, the values for the pEC50 in assay [3], in assay [4] and in assay [5] were 6.86, 7.03 and 6.89, respectively. Moreover, in assay [6], the “activity against GT4a” value is “inactive”.
